Numbered stars: 1 amine (or outer) side, 2 acyl side, 3 side chain; on linkers, the order of the positions; unused ones are H or OH. Bridge positions count the residues as written; N and C are the ends. Square brackets hold non-standard residues; d marks the D form. Peptide text beside a SMILES is read from it. * marks the point of attachment. X13 = O=C(O)CN1CCN(CC(=O)O)CCN(CC(=O)N2CCN(Cc3cc(C[*:1])cc(C[*:2])c3)CC2)CCN(CC(=O)O)CC1; X7 = O=C(CCP(=O)(O)CN1CCN(CP(=O)(O)CO)CCN(CP(=O)(O)CO)CC1)NCCSCc1cc(C[*:1])cc(C[*:2])c1; 1Nal = N[C@@H](Cc1cccc2ccccc12)C(=O)O; mXylylene = c1cc(C[*:1])cc(C[*:2])c1; Hexanoyl = CCCCCC(=O)*; Nleu = CC(C)CNCC(=O)O
What was measured:
Human recombinant FAP = Human recombinant FAP (Homo sapiens, UniProt Q12884); assay: FRET-based FAP protease activity assay; format: biochemical; parameters: purchased R&D systems 3715-SE
Human recombinant FAP, sequence (Q12884 whole entry): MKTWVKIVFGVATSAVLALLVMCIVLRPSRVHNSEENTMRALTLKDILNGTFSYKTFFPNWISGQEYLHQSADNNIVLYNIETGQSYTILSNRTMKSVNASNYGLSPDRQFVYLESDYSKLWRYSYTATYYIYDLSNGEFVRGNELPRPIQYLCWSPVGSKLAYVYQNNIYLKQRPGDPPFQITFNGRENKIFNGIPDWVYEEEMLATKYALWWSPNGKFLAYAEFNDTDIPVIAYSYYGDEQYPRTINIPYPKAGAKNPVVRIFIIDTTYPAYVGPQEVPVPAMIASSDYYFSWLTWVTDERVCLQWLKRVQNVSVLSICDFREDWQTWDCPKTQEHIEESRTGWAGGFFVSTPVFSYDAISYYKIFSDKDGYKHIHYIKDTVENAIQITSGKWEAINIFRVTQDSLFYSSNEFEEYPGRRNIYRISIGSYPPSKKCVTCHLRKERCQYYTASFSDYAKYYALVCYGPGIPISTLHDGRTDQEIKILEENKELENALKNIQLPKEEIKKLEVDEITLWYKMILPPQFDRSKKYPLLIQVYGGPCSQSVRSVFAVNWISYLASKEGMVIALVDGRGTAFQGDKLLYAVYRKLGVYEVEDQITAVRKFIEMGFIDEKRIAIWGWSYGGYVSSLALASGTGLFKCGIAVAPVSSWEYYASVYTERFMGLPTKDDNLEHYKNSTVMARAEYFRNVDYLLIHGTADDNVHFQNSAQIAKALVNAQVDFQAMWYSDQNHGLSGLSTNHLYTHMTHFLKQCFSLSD

[1] = target: T1, FAP-expressing human WI-38 fibroblasts (Homo sapiens, UniProt Q12884); assay: Competitive FACS binding assay
T1 construct: FAP-expressing human WI-38 fibroblasts (ECACC) were cultured in EMEM; host or cells: WI-38 human fibroblasts
T1 sequence (Q12884 whole entry): as above
Description: Cells were analyzed in an Attune NxT flow cytometer. […] […].
Cells were analyzed in an Attune NxT flow cytometer. […]

[2] = pIC50 Category (Activity), FRET-peptide substrate, 37° C.
[3] = pIC50 Category (Activity), FRET-based FAP protease activity assay, recombinant human FAP, 37° C.

| SMILES | IC50 [1] [nM] | IC50 (Human recombinant FAP; [3]) [nM] | also measured |
| --- | --- | --- | --- |
| CCCOCC(=O)N[C@H]1CSCc2cc(CSCCNC(=O)CN3CCN(CC(=O)O)CCN(CC(=O)O)CCN(CC(=O)O)CC3)cc(c2)CSC[C@@H](C(=O)O)NC(=O)[C@H](Cc2ccccc2)NC(=O)[C@H](CCC(N)=O)NC(=O)[C@H]([C@@H](C)O)NC(=O)[C@@H]2CCCN2C(=O)[C@@H]2CCCN2C1=O [3BP-3938, PrOAc-[Cys(tMeBn(DOTA-AET))-Pro-Pro-Thr-Gln-Phe-Cys]-OH] | < 10 | – | IC50 (Human recombinant FAP; [2]): < 10 nM |
| CCCCCC(=O)N[C@H]1CSCc2cc(CSCCNC(=O)CCC(=O)NCCCOCCOCCOCCCNC(=O)[C@H](CO)NC(=O)[C@H](CO)NC(=O)[C@H](CO)NC(=O)CS)cc(c2)CSC[C@@H](C(=O)O)NC(=O)[C@H](Cc2ccccc2)NC(=O)[C@H](CCC(N)=O)NC(=O)[C@H]([C@@H](C)O)NC(=O)[C@@H]2CCCN2C(=O)[C@@H]2CCCN2C1=O [3BP-4308, Hex-[Cys-(tMeBn(H-SAc-Ser-Ser-Ser-Ttds-AET))-Pro-Pro-Thr-Gln-Phe-Cys]-OH] | 10 to 79.4 | – | IC50 (Human recombinant FAP; [2]): 10 to 79.4 nM |
| CCCCCC(=O)N[C@H]1CSCc2cc(CSCCNC(=O)CCP(=O)(O)CN3CCN(CP(=O)(O)CO)CCN(CP(=O)(O)CO)CC3)cc(c2)CSC[C@@H](C(=O)O)NC(=O)[C@H](Cc2ccccc2)NC(=O)[C@H](CCC(=O)O)NC(=O)[C@H]([C@@H](C)O)NC(=O)[C@@H]2CCCN2C(=O)[C@@H]2CCCN2C1=O [3BP-4816, Hex-[C(tMeBn(GaNOPO-AET))-PPTEFC]-OH] (Hexanoyl-CPPTEFC-OH; linker 1-7 via X7) | – | – | pIC50 Category (activity) (Human recombinant FAP; Recombinant human FAP): B (category B for pIC50 values between 7.1 and 8.0); pIC50 Category (FACS) ([1]; FAP-expressing human WI-38 fibroblasts): B (category B for pIC50 values between 7.1 and 8.0) |
| CCCCCC(=O)N[C@H]1CSCc2cc(cc(CN3CCN(C(=O)CN4CCN(CC(=O)O)CCN(CC(=O)O)CCN(CC(=O)O)CC4)CC3)c2)CSC[C@@H](C(=O)N[C@@H](CC(=O)O)C(N)=O)NC(=O)[C@H](Cc2ccccc2)NC(=O)[C@H](C)NC(=O)[C@H](C)NC(=O)[C@@H]2CCCN2C(=O)[C@@H]2CCCN2C1=O [3BP-3746, Hex-[Cys(tMeBn(DOTA-PP))-Pro-Pro-Ala-Ala-Phe-Cys]-Asp-NH2] (Hexanoyl-CPPAAFCD-NH2; linker 1-7 via X13) | > 1000 | 100 to 794 | – |
| CCCCCC(=O)N[C@H]1CSCc2cc(CSCCNC(=O)COc3ccc4nc3CN(CC(=O)O)CCN(CC(=O)O)CCN(CC(=O)O)C4)cc(c2)CSC[C@@H](C(=O)O)NC(=O)[C@H](Cc2ccccc2)NC(=O)[C@H](CCC(N)=O)NC(=O)[C@H]([C@@H](C)O)NC(=O)[C@@H]2CCCN2C(=O)[C@@H]2CCCN2C1=O [3BP-5363, Hex-[C(tMeBn(LaAcPCTA-AET))-PPTQFC]-OH] | – | – | pIC50 Category (activity) (Human recombinant FAP; Recombinant human FAP): B (category B for pIC50 values between 7.1 and 8.0) |
| CCCCCC(=O)N[C@H]1CSCc2cc(CSCCNC(=O)CCCCCN3C(=CC=CC=CC4=[N+](CCCCS(=O)(=O)[O-])c5ccccc5C4(C)C)C(C)(C)c4ccccc43)cc(c2)CSC[C@@H](C(=O)O)NC(=O)[C@H](Cc2ccccc2)NC(=O)[C@H](CCC(N)=O)NC(=O)[C@H]([C@@H](C)O)NC(=O)[C@@H]2CCCN2C(=O)[C@@H]2CCCN2C1=O [3BP-3694, Hex-[Cys(tMeBn(Cy5SO3-AET))-Pro-Pro-Thr-Gln-Phe-Cys]-OH] | – | 100 to 794 | – |
| CCCCCC(=O)N[C@H]1CSCc2cc(CSCCNC(=O)CN3CCN(CC(N)=O)CCN(CC(N)=O)CCN(CC(N)=O)CC3)cc(c2)CSCC(C(=O)O)NC(=O)[C@H](Cc2ccccc2)NC(=O)[C@H](CCC(N)=O)NC(=O)[C@H]([C@@H](C)O)NC(=O)[C@@H]2CCCN2C(=O)[C@@H]2CCCN2C1=O (stereo partly drawn) [3BP-5323, Hex-[Cys(tMeBn(DOTAM-AET))-Pro-Pro-Thr-Gln-Phe-Cys]-OH] | – | – | IC50 (Human recombinant FAP; pIC50 Category (activity), Recombinant human FAP): < 10 nM |

More lines, main results first:

| IC50 [1] [nM] | IC50 (Human recombinant FAP; [3]) [nM] | SMILES | also measured |
| --- | --- | --- | --- |
| 10 to 79.4 | 10 to 79.4 | CCCCCC(=O)N[C@H]1CSCc2cccc(c2)CSC[C@@H](C(N)=O)NC(=O)[C@H](Cc2cccc3ccccc23)NC(=O)[C@H](CCC(=O)O)NC(=O)[C@H]([C@@H](C)O)NC(=O)[C@@H]2CCCN2C(=O)[C@@H]2CCCN2C1=O [3BP-3361, Hex-[Cys(3MeBn)-Pro-Pro-Thr-Glu-1Ni-Cys]-NH2] (Hexanoyl-CPPTE[1Nal]C-NH2; linker 1-7 via mXylylene) | – |
| > 1000 | > 1000 | CCCCCC(=O)N[C@H]1CSCc2cccc(c2)CSC[C@@H](C(N)=O)NC(=O)[C@H](Cc2ccccc2)NC(=O)[C@H](CCC(N)=O)NC(=O)[C@H]([C@@H](C)O)NC(=O)[C@@H]2CCCN2C(=O)CN(CC(C)C)C1=O [3BP-3749, Hex-[Cys(3MeBn)-Nleu-Pro-Thr-Gln-Phe-Cys]-NH2] (Hexanoyl-C[Nleu]PTQFC-NH2; linker 1-7 via mXylylene) | – |
| 10 to 79.4 | < 10 | CCCCCC(=O)N[C@H]1CSCc2cccc(c2)CSC[C@@H](C(N)=O)NC(=O)[C@H](Cc2ccccc2C(F)(F)F)NC(=O)[C@H](CCC(N)=O)NC(=O)[C@H]([C@@H](C)O)NC(=O)[C@@H]2CCCN2C(=O)[C@@H]2CCCN2C1=O [3BP-3409, Hex-[Cys(3MeBn)-Pro-Pro-Thr-Gln-Otf-Cys]-NH2] | – |

From US20230212549A1, “COMPOUNDS COMPRISING A […] LIGAND AND USE THEREOF” (priority 2021, published 2023)
